Measurements published in US4401660A, “Ester derivatives of 5-O-mycaminosyl tylonolide and method of using same” (Eli Lilly and Company, priority 1981, dated 1983).
Read-outs that look alike come from different tables or passages of the source.

Columns and labels:
[1] = tested on: Pasteurella multocida; assay: Treatment of Pasteurella infections in chicks (Table V); format: in vivo, one-day-old chicks; details: Pasteurella multocida, sc, 4 h; 30 mg/kg by subcutaneous injection one and four hours post challenge; read-out: Deaths in Treated Chicks/Number Treated (converted)
How it was run: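 One-day-old chicks challenged subcutaneously with avian P. multocida (0.1 ml of 10^-3 dilution of 20-hour tryptose broth culture). Esters given at 30 mg/kg subcutaneously at 1 and 4 hours post challenge. Untreated infected controls, ten per group.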

[2] = tested on: Pasteurella haemolytica 22C; assay: MIC, broth-dilution microtiter test (Table III); format: cell-based; set-up: unit not given here
Description: (§1) The MIC's in Table II were determined by standard agar-dilution assays. The MIC's in Table III were obtained using a conventional broth-dilution microtiter test.

[3] = tested on: Mycoplasma hyorhinis; assay: MIC, broth-dilution microtiter test (Table III); format: cell-based; set-up: unit not given here
Description: as §1

[4] = tested on: Pasteurella multocida 40G; assay: MIC, broth-dilution microtiter test (Table III); format: cell-based; set-up: unit not given here
Description: as §1

[5] = tested on: Mycoplasma synoviae; assay: MIC, broth-dilution microtiter test (Table III); format: cell-based; set-up: unit not given here
Description: as §1

[6] = tested on: Mycoplasma gallisepticum; assay: MIC, broth-dilution microtiter test (Table III); format: cell-based; set-up: unit not given here
Description: as §1

[7] = tested on: Pasteurella multocida 17E; assay: MIC, broth-dilution microtiter test (Table III); format: cell-based; set-up: unit not given here; details: bovine isolate
Description: as §1

[8] = tested on: Streptococcus sp. 80; assay: MIC, broth-dilution microtiter test (Table III); format: cell-based; set-up: unit not given here
Description: as §1

[9] = tested on: Pasteurella haemolytica 41D; assay: MIC, broth-dilution microtiter test (Table III); format: cell-based; set-up: unit not given here
Description: as §1

[10] = tested on: Pasteurella multocida 22A; assay: MIC, broth-dilution microtiter test (Table III); format: cell-based; set-up: unit not given here
Description: as §1

[11] = tested on: Staphylococcus aureus; assay: MIC, broth-dilution microtiter test (Table III); format: cell-based; set-up: unit not given here
Description: as §1

[12] = tested on: Pasteurella multocida 68C; assay: MIC, broth-dilution microtiter test (Table III); format: cell-based; set-up: unit not given here
Description: as §1

[13] = tested on: Pasteurella haemolytica 23C; assay: MIC, broth-dilution microtiter test (Table III); format: cell-based; set-up: unit not given here
Description: as §1

[14] = tested on: Pasteurella multocida 60A; assay: MIC, broth-dilution microtiter test (Table III); format: cell-based; set-up: unit not given here; details: avian isolate
Description: as §1

[15] = tested on: Streptococcus pyogenes C203; assay: ED50 in mice with experimental infections (Table IV); format: in vivo; details: Streptococcus pyogenes, doses given 1 and 4 hours postinfection
How it was run: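 Mice with experimental infections received test compound twice, at 1 and 4 h postinfection. ED50 is the dose in mg/kg (per administration, ×2) protecting 50% of animals.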

[16] = tested on: Haemophilus influenzae Holt; assay: MIC, standard agar-dilution assay (Table II); format: cell-based; set-up: unit not given here; details: ampicillin-sensitive strain
Description: as §1

[17] = tested on: Staphylococcus aureus S13E; assay: MIC, standard agar-dilution assay (Table II); format: cell-based; set-up: unit not given here
Description: as §1

[18] = tested on: Staphylococcus aureus X400; assay: MIC, standard agar-dilution assay (Table II); format: cell-based; set-up: unit not given here; details: Staphylococcus aureus X400, methicillin-resistant strain
Description: as §1

[19] = tested on: Streptococcus pyogenes C203; assay: MIC, standard agar-dilution assay (Table II); format: cell-based; set-up: unit not given here
Description: as §1

[20] = tested on: Streptococcus pneumoniae Park I; assay: MIC, standard agar-dilution assay (Table II); format: cell-based; set-up: unit not given here
Description: as §1

[21] = tested on: Haemophilus influenzae R252; assay: MIC, standard agar-dilution assay (Table II); format: cell-based; set-up: unit not given here; details: Haemophilus influenzae R252, ampicillin-resistant strain
Description: as §1

[22] = tested on: Streptococcus Group D 9960; assay: MIC, standard agar-dilution assay (Table II); format: cell-based; set-up: unit not given here
Description: as §1

[23] = tested on: Staphylococcus epidermidis EPI1; assay: MIC, standard agar-dilution assay (Table II); format: cell-based; set-up: unit not given here
Description: as §1

[24] = tested on: Streptococcus Group D X66; assay: MIC, standard agar-dilution assay (Table II); format: cell-based; set-up: unit not given here
Description: as §1

[25] = tested on: Staphylococcus aureus V41; assay: MIC, standard agar-dilution assay (Table II); format: cell-based; set-up: unit not given here; details: Staphylococcus aureus V41, penicillin-resistant strain
Description: as §1

[26] = tested on: Staphylococcus aureus X1.1; assay: MIC, standard agar-dilution assay (Table II); format: cell-based; set-up: unit not given here
Description: as §1

[27] = tested on: Staphylococcus epidermidis EPI2; assay: MIC, standard agar-dilution assay (Table II); format: cell-based; set-up: unit not given here
Description: as §1

[28] = C203, oral, read-out: ED50, Oral
[29] = C203, sc, subcutaneous, read-out: ED50, Subcutaneous

| Structure (SMILES) | mortality at 30 mg/kg [1] [%] | minimal inhibitory concentration (MIC) [2] | minimal inhibitory concentration (MIC) [3] | minimal inhibitory concentration (MIC) [4] | minimal inhibitory concentration (MIC) [6] | minimal inhibitory concentration (MIC) [7] | minimal inhibitory concentration (MIC) [8] | minimal inhibitory concentration (MIC) [9] | minimal inhibitory concentration (MIC) [10] | minimal inhibitory concentration (MIC) [11] | minimal inhibitory concentration (MIC) [12] | minimal inhibitory concentration (MIC) [13] | minimal inhibitory concentration (MIC) [14] | ED50 [15, 28] [mg/kg] | ED50 [15, 29] [mg/kg] | minimal inhibitory concentration (MIC) [17] | minimal inhibitory concentration (MIC) [18] | minimal inhibitory concentration (MIC) [19] | minimal inhibitory concentration (MIC) [20] | minimal inhibitory concentration (MIC) [22] | further results |
| --- | --- | --- | --- | --- | --- | --- | --- | --- | --- | --- | --- | --- | --- | --- | --- | --- | --- | --- | --- | --- | --- |
| CCC1OC(=O)CC(O)C(C)C(OC2OC(C)C(O)C(N(C)C)C2O)C(CC=O)CC(C)C(=O)C=CC(C)=CC1COC(=O)C(C)(C)C (stereo not shown) [Compound 68] | 0 | 6.25 | 0.097 | 3.12 | 0.097 | 3.12 | < 0.78 | 6.25 | 3.12 | 1.56 | 1.56 | 3.12 | 3.12 | > 100 | 3.8 | 0.25 | 0.25 | 0.125 | 0.06 | 0.25 | minimal inhibitory concentration (MIC) [5]: < 0.048; minimal inhibitory concentration (MIC) [16]: 1; minimal inhibitory concentration (MIC) [21]: 2; minimal inhibitory concentration (MIC) [23]: 0.25; minimal inhibitory concentration (MIC) [24]: 0.25; minimal inhibitory concentration (MIC) [25]: 0.25; minimal inhibitory concentration (MIC) [26]: 0.25; minimal inhibitory concentration (MIC) [27]: 0.25 |
| CCC1OC(=O)CC(O)C(C)C(OC2OC(C)C(O)C(N(C)C)C2O)C(CC=O)CC(C)C(=O)C=CC(C)=CC1COC(=O)NCc1ccccc1 (stereo not shown) [Compound 76] | 100 | 6.25 | 0.78 | 6.25 | 0.097 | 6.25 | 0.39 | 3.12 | > 50 | 0.39 | 3.12 | 3.12 | 6.25 | > 100 | 25 | 0.125 | 0.25 | 0.06 | 0.015 | 0.125 | minimal inhibitory concentration (MIC) [5]: < 0.048; minimal inhibitory concentration (MIC) [16]: 0.5; minimal inhibitory concentration (MIC) [21]: 1; minimal inhibitory concentration (MIC) [23]: 0.125; minimal inhibitory concentration (MIC) [24]: 0.25; minimal inhibitory concentration (MIC) [25]: 0.125; minimal inhibitory concentration (MIC) [26]: 0.125; minimal inhibitory concentration (MIC) [27]: 0.125 |
| CCC1OC(=O)CC(O)C(C)C(OC2OC(C)C(O)C(N(C)C)C2O)C(CC=O)CC(C)C(=O)C=CC(C)=CC1COC(=O)COc1ccccc1 (stereo not shown) [Compound 36, 23-O-Phenoxyacetyl-OMT] | 10 | 3.12 | 1.56 | 1.56 | < 0.05 | 1.56 | < 0.05 | 3.12 | 3.12 | 0.39 | 0.78 | 3.12 | 1.56 | > 150 | 6 | 0.125 | 0.25 | 0.06 | 0.03 | 0.125 | minimal inhibitory concentration (MIC) [16]: 0.5; minimal inhibitory concentration (MIC) [21]: 0.5; minimal inhibitory concentration (MIC) [23]: 0.125; minimal inhibitory concentration (MIC) [24]: 0.125; minimal inhibitory concentration (MIC) [25]: 0.25; minimal inhibitory concentration (MIC) [26]: 0.125; minimal inhibitory concentration (MIC) [27]: 0.25 |
| CCC1OC(=O)CC(O)C(C)C(OC2OC(C)C(O)C(N(C)C)C2O)C(CC=O)CC(C)C(=O)C=CC(C)=CC1COC(=O)[C@H](NC(=O)OC(C)(C)C)c1ccccc1 (stereo partly drawn) [Compound 40, 23-O-(D-t-BOC-Phenylglycyl)-OMT] | 100 | 12.5 | 0.39 | 6.25 | < 0.05 | 6.25 | 0.195 | 12.5 | 12.5 | 0.78 | 6.25 | 12.5 | 6.25 | 116 | 5 | 0.5 | 1 | 0.125 | 0.06 | 0.5 | minimal inhibitory concentration (MIC) [16]: 2; minimal inhibitory concentration (MIC) [21]: 2; minimal inhibitory concentration (MIC) [23]: 0.5; minimal inhibitory concentration (MIC) [24]: 0.5; minimal inhibitory concentration (MIC) [25]: 1; minimal inhibitory concentration (MIC) [26]: 0.5; minimal inhibitory concentration (MIC) [27]: 0.5 |
| CCC1OC(=O)CC(O)C(C)C(OC2OC(C)C(O)C(N(C)C)C2O)C(CC=O)CC(C)C(=O)C=CC(C)=CC1COC(=O)[C@H](O)c1ccccc1 (stereo partly shown) [Compound 42, 23-O-Mandeloyl-OMT] | 0 | 6.25 | 12.5 | 1.56 | 0.39 | 6.25 | 0.39 | 3.12 | 6.25 | 0.78 | 3.12 | 6.25 | 3.12 | > 150 | 11 | 0.25 | 0.5 | 0.125 | 0.06 | 0.25 | minimal inhibitory concentration (MIC) [5]: 0.195; minimal inhibitory concentration (MIC) [23]: 0.25; minimal inhibitory concentration (MIC) [24]: 0.25; minimal inhibitory concentration (MIC) [25]: 0.5; minimal inhibitory concentration (MIC) [26]: 0.25; minimal inhibitory concentration (MIC) [27]: 0.5 |
